Measurements taken from US20050130252A1, “Stabilized susceptibility tests of aerobic pathogens” (Wyeth Holdings Corporation, priority 2003, published 2005).
Converted amounts (≈) assume the structure as drawn. Where two headings read alike, the source gives them in different places.

What was measured:
E. faecalis ATCC 29212 = test: Broth microdilution MIC; format: cell-based, Enterococcus faecalis; settings: for MIC: Enterococcus faecalis
Procedure: The process for preparing susceptibility test medium are the following steps: • a. Preparing Mueller Hinton Broth II medium by adding 22 grams powdered media to 1.0 liter distilled water; • b. Autoclaving (121° C., 15 psi, 15 minutes) and cooling the medium; • c. Adding Oxyrase® up to about 10% final volume and keeping at 35-37° C. in an incubator for 30 minutes; • d. Adding about 50 μL to each well of a 96 well microtiter plate; • e. Weighing drug and adding broth to drug to bring up to about (standard 128 μg/ml); • f. Adding 50 μL of the drug to the first column of the titer plate; • g. Diluting by two-fold serial diluting across or down the plate. • h. Preparing a Prompt™ inoculum at 10^8 CFU/ml; • i. Diluting inoculum 1:100 in the broth at […] in 9.9 ml (1:100) is 10^6 colony forming units (CFU) forming the adjusted inoculum; • j. Adding 50 μL of the adjusted inoculum to the wells of the microtiter plate; • k. Incubating the plates at 35-37° C. for 18-22 hours; and • l. Reading, with the unaided eye, the MIC.
(§1) The in vitro activities of tigecycline and control antibiotics were determined by the broth microdilution method as recommended by the NCCLS. (National Committee for Clinical Laboratory Standards, 2003. Methods for Dilution Antimicrobial Susceptibility Tests for Bacteria That Grow Aerobically; Approved Standards: M7-A6, Sixth ed, vol. 23., National Committee for Clinical Laboratory Standards Wayne, Pa.) was used for the standard procedures. MBH with 5% lysed horse blood was used for testing S. pneumoniae and Haemophilus Test Medium was used for testing H. influenzae. Oxyrase® (Oxyrase Inc, Mansfield, Ohio) was used according to the manufacturer's instructions by adding 1 ml of Oxyrase® to 50 ml of media. Media age studies were performed by preparing MHB in multiple flasks, then storing the media under various conditions. MICs were usually performed in duplicate on each day of testing. Storage under anaerobic conditions was conducted in an anaerobic chamber (MACS MG 1000, Don Whitley Scientific LTD). The pH of the media was determined by pH meter (Corning 430). A comparison of the in vitro activity of tigecycline by agar and broth dilution methodolgies with and without Oxyrase® against clinical isolates is shown in Table 1.

[1] = tested on: Candida albicans GC3066 ATCC Control; test: Agar dilution in vitro activity; format: cell-based; settings: C. albicans GC3066 ATCC Control
Procedure: as §1, with “Oxyrase® (Oxyrase Inc, Mansfield, Ohio) was used according to the manufacturer's instructions by adding 1 ml of Oxyrase® to 50 ml of media.” left out

[2] = tested on: Enterococcus faecalis GC4555 ATCC Control; test: Agar dilution in vitro activity; format: cell-based; settings: E. faecalis GC4555 ATCC Control
Procedure: as §1, with “Oxyrase® (Oxyrase Inc, Mansfield, Ohio) was used according to the manufacturer's instructions by adding 1 ml of Oxyrase® to 50 ml of media.” left out

[3] = tested on: Escherichia coli GC2203 ATCC Control; test: Agar dilution in vitro activity; format: cell-based; settings: E. coli GC2203 ATCC Control
Procedure: as §1, with “Oxyrase® (Oxyrase Inc, Mansfield, Ohio) was used according to the manufacturer's instructions by adding 1 ml of Oxyrase® to 50 ml of media.” left out

[4] = tested on: Escherichia coli GC4560 IMP mutant; test: Agar dilution in vitro activity; format: cell-based; settings: E. coli GC4560 IMP mutant
Procedure: as §1, with “Oxyrase® (Oxyrase Inc, Mansfield, Ohio) was used according to the manufacturer's instructions by adding 1 ml of Oxyrase® to 50 ml of media.” left out

[5] = tested on: Staphylococcus aureus GC6466 Clinical - tet(M); test: Agar dilution in vitro activity; format: cell-based; settings: S. aureus GC6466 tet(M)
Procedure: as §1, with “Oxyrase® (Oxyrase Inc, Mansfield, Ohio) was used according to the manufacturer's instructions by adding 1 ml of Oxyrase® to 50 ml of media.” left out

[6] = tested on: Staphylococcus aureus GC6467 Clinical - tet(M) + (K); test: Agar dilution in vitro activity; format: cell-based; settings: S. aureus GC6467 tet(M) + (K)
Procedure: as §1, with “Oxyrase® (Oxyrase Inc, Mansfield, Ohio) was used according to the manufacturer's instructions by adding 1 ml of Oxyrase® to 50 ml of media.” left out

[7] = Table 8, E. faecalis ATCC 29212, Mueller Hinton Broth + Oxyrase, n = 240
[8] = Table 8, E. faecalis ATCC 29212, Mueller Hinton Broth, n = 320
[9] = Table 9, E. faecalis ATCC 29212, Mueller Hinton Broth + Oxyrase, n = 31
[10] = Table 9, E. faecalis ATCC 29212, Mueller Hinton Broth, n = 96

Question: With `CN(C)c1cc(NC(=O)CNC(C)(C)C)c(O)c2c1C[C@H]1C[C@H]3[C@H](N(C)C)C(O)=C(C(N)=O)C(=O)[C@@]3(O)C(O)=C1C2=O` [Tigecycline, tigecycline] as the compound, how does the MIC (E. faecalis ATCC 29212; ATCC29212, read-out: Minimal Inhibitory Concentration, E. faecalis ATCC 29212, MHB II + 0.05% Thioglycolate) read?
Answer: Its MIC is 0.12 µg/mL.

Question: And the MIC (E. faecalis ATCC 29212; ATCC29212, read-out: Minimal Inhibitory Concentration, E. faecalis ATCC 29212, MHB II + 2% Oxyrase)?
Answer: The MIC was 0.03 to 0.06 µg/mL.

Question: And the MIC (E. faecalis ATCC 29212; ATCC29212, read-out: Minimal Inhibitory Concentration, E. faecalis ATCC 29212, Mueller Hinton Broth II (Fresh))?
Answer: The MIC was 0.06 to 0.12 µg/mL (≈ 0.102 to 0.205 µM).

Question: And the MIC (E. faecalis ATCC 29212; ATCC29212, read-out: Minimal Inhibitory Concentration, E. faecalis ATCC 29212, No Oxyrase)?
Answer: Its MIC is 0.25 µg/mL (≈ 0.427 µM).

Question: And the MIC (E. faecalis ATCC 29212; ATCC29212, read-out: Minimal Inhibitory Concentration, E. faecalis ATCC29212, media Aged Anaerobic, N = 4)?
Answer: The MIC was 0.03 µg/mL (≈ 0.0512 µM).

Question: And the “Number of Occurrences of MIC 0.03 ug/ml” value (E. faecalis ATCC 29212; [7])?
Answer: Its value is 5.

Question: What about the “Number of Occurrences of MIC 0.06 ug/ml” value (E. faecalis ATCC 29212; [7]) of the same compound?
Answer: Its value is 203.

Question: What about the “Number of Occurrences of MIC 0.12 ug/ml” value (E. faecalis ATCC 29212; [7]) of the same compound?
Answer: The value was 28.

Question: What about the “Number of Occurrences of MIC 0.25 ug/ml” value (E. faecalis ATCC 29212; [7]) of the same compound?
Answer: Its value is 2.

Question: What about the “Number of Occurrences of MIC 0.5 ug/ml” value (E. faecalis ATCC 29212; [7]) of the same compound?
Answer: The value was 1.

Question: What about the “Number of Occurrences of MIC 1 ug/ml” value (E. faecalis ATCC 29212; [7]) of the same compound?
Answer: The value was 1.

Question: And the “Number of Occurrences of MIC 0.06 ug/ml” value (E. faecalis ATCC 29212; [8])?
Answer: Its value is 1.

Question: What about the “Number of Occurrences of MIC 0.12 ug/ml” value (E. faecalis ATCC 29212; [8]) of the same compound?
Answer: The value was 96.

Question: What about the “Number of Occurrences of MIC 0.25 ug/ml” value (E. faecalis ATCC 29212; [8]) of the same compound?
Answer: Its value is 140.

Question: What about the “Number of Occurrences of MIC 0.5 ug/ml” value (E. faecalis ATCC 29212; [8]) of the same compound?
Answer: The value was 16.

Question: What about the “Number of Occurrences of MIC 1 ug/ml” value (E. faecalis ATCC 29212; [8]) of the same compound?
Answer: Its value is 64.

Question: And the “Number of Occurrences of MIC 2 ug/ml” value (E. faecalis ATCC 29212; [8])?
Answer: The value was 3.

Question: What about the “Number of Occurrences of MIC 0.03 ug/ml” value (E. faecalis ATCC 29212; [9]) of the same compound?
Answer: The value was 6.

Question: What about the “Number of Occurrences of MIC 0.06 ug/ml” value (E. faecalis ATCC 29212; [9]) of the same compound?
Answer: The value was 14.

Question: And the “Number of Occurrences of MIC 0.12 ug/ml” value (E. faecalis ATCC 29212; [9])?
Answer: The value was 11.

Question: And the “Number of Occurrences of MIC 0.12 ug/ml” value (E. faecalis ATCC 29212; [10])?
Answer: The value was 25.

Question: And the “Number of Occurrences of MIC 0.25 ug/ml” value (E. faecalis ATCC 29212; [10])?
Answer: Its value is 52.

Question: And the “Number of Occurrences of MIC 0.5 ug/ml” value (E. faecalis ATCC 29212; [10])?
Answer: The value was 19.

Question: And the “In Vitro Activity of Tigecycline” value ([1]; Oxyrase (10%))?
Answer: Its value is >16.

Question: What about the “In Vitro Activity of Tigecycline” value ([1]; no Oxyrase) of the same compound?
Answer: The value was >16.

Question: And the “In Vitro Activity of Tigecycline” value ([2]; Oxyrase (10%))?
Answer: Its value is 0.12.

Question: And the “In Vitro Activity of Tigecycline” value ([2]; no Oxyrase)?
Answer: The value was 0.12.

Question: What about the “In Vitro Activity of Tigecycline” value ([3]; Oxyrase (10%)) of the same compound?
Answer: Its value is 0.12.

Question: And the “In Vitro Activity of Tigecycline” value ([3]; no Oxyrase)?
Answer: The value was 0.25.

Question: What about the “In Vitro Activity of Tigecycline” value ([4]; Oxyrase (10%)) of the same compound?
Answer: Its value is 0.03.

Question: What about the “In Vitro Activity of Tigecycline” value ([4]; no Oxyrase) of the same compound?
Answer: The value was 0.03.

Question: What about the “In Vitro Activity of Tigecycline” value ([5]; Oxyrase (10%)) of the same compound?
Answer: Its value is 0.12.

Question: And the “In Vitro Activity of Tigecycline” value ([5]; no Oxyrase)?
Answer: Its value is 0.25.

Question: What about the “In Vitro Activity of Tigecycline” value ([6]; Oxyrase (10%)) of the same compound?
Answer: Its value is 0.5.

Question: And the “In Vitro Activity of Tigecycline” value ([6]; no Oxyrase)?
Answer: Its value is 1.
